Key:
[1] = biological target: T1, Variant c4 (aa 1–69 of human ATGL) (Homo sapiens, UniProt Q96AD5, F97C/G146T/H109R/I93T/N133S/S106C/S111N/S158T/S96G/V101T); experiment: TAG hydrolase assay, chimeric ATGL variants; assay type: biochemical, human and mouse; details: variant c4, NG-497 (10 μM) or Atglistatin (10 μM)
T1 construct: host or cells: Expi293 cells, cell lysate
Experimental: (§1) Figure 5 Analysis of chimeric proteins comprising human and mouse ATGL. (a) Schematic view of the minimal active domain of wild-type and chimeric ATGL variants (c1–c9). Nonidentical aa are indicated in blue and red for mouse and human ATGL, respectively. ATGL variants were expressed in Expi293 cells and TAG hydrolase activity was determined in cell lysates in the presence or absence of NG-497 (10 μM) and Atglistatin (10 μM), respectively. Inhibition of ATGL variants by respective inhibitors (tick mark) and lack of inhibition (cross) is indicated at the right edge. The expression of all ATGL variants was confirmed by Western blotting analysis (Figure S6). (b) Dose-dependent inhibition of human ATGL (aa 1–288) and c1 (human aa 1–158 and mouse aa 159–288) by NG-497. (c) Dose-dependent inhibition of mouse ATGL (aa 1–288) and c2 (mouse aa 1–158 and human aa 159–288) by Ai. IC50 values are shown in the insets. Data are presented as relative inhibition of respective DMSO controls and are indicated as mean ± SD. (d) 3D homology model of the minimal active domain of mouse ATGL (M1–L254) depicted as a cartoon. Residues 1–178 are in blue, and residues 179–254 are in gray. S47 and D166 comprising the active site are represented as green sticks. T101, C106, R109, N111, and S133 are colored in orange, A60, N68, I69, T93, C97, and T146 are colored in magenta. TEXT PRINTED IN THE PICTURE: (b) NG-497: IC50 [μM] (human): 1.3±0.1; IC50 [μM] (c1): 1.3±0.1 | (b) Ai: IC50 [μM] (human): n.det.; IC50 [μM] (c1): n.det. | (c) NG-497: IC50 [μM] (mouse): n.det.; IC50 [μM] (c2): n.det. | (c) Ai: IC50 [μM] (mouse): 2.5±0.3; IC50 [μM] (c2): 2.4±0.1 […]
(§2) We next generated variants by further stepwise humanization of c2. Variant c3 containing aa 1–23 of human ATGL was inhibited by Ai but not NG-497 (Figure 5a). […] Finally, variants of mouse ATGL containing aa 1–146 (c7) and 60–146 (c8) of human ATGL were inhibited by NG-497 but not Ai (Figure 5a).
(§3) Experimental details, materials, and methods
(§4) Expression of recombinant ATGL constructs and preparation of cell lysates. Expi293 cells were cultivated in Expi293 Expression Medium (GIBCO, Thermo Fisher Scientific, Waltham, USA) at standard conditions (37°C, 5% CO2, 95% humidified atmosphere, 125 rpm). DNA constructs containing ATGL from different species and chimeric ATGL variants in pcDNA3.1(+)myc-His C Vector were obtained from BioCat GmbH (Heidelberg, Germany). Cells were transfected with ExpiFectamine293 Transfection Kit (GIBCO) in Opti-Mem reduced serum medium (GIBCO) according to the manufacturer’s instructions. After 48 h, cells were harvested by centrifugation and washed three times with PBS. Cells were disrupted in buffer A (0.25 M sucrose, 1 mM EDTA, 1 mM dithiothreitol, 20µg/ml leupeptin, 2 µg/ml antipain, 1 µg/ml pepstatin, pH 7.0) by sonication (Virsonic 475, Virtis, Gardiner, USA). Nuclei and debris were removed by centrifugation at 1,000 g and 4°C for 10 min. Protein concentrations were determined using Bio-Rad protein assay (Bio-Rad 785, Bio-Rad Laboratories, Munich, Germany) using BSA as standard.
(§5) Expression and purification of mouse CGI-58. CGI-58 was expressed and purified as described 1. In brief, the coding sequence of mouse Cgi-58 was cloned into pHis-Sumo and co-transformed with the plasmid pTf16 expressing the chaperone Tig into E. coli BL21(DE3). Cells were cultured overnight at 37°C and 180 rpm in the presence of 40 µg/ml kanamycin and 34 µg/ml chloramphenicol. Thereafter, cells were transferred into fresh LB medium, grown until OD600 of 0.6, and expression was induced by the addition of 0.5 mM IPTG. After overnight incubation at 30°C, cells were harvested at 4,500 x g and 4°C for 20 min, washed in 1x PBS, and resuspended in lysis buffer (20 mM Tris/HCl pH 7.8, 300 mM NaCl, 30 mM imidazole, 0.1% IGEPAL CA-630, 3.5 mM β-mercaptoethanol, 20 µg/ml leupeptin, 2 µg/ml antipain and 1 µg/ml pepstatin). Cells were incubated with 1 […]

[2] = biological target: T2, c5 (aa 1–111 of human ATGL) (Homo sapiens, UniProt Q96AD5, G146T/N133S/S158T); experiment: TAG hydrolase assay, chimeric ATGL variants; assay type: biochemical, human and mouse; details: variant c5, NG-497 (10 μM) or Atglistatin (10 μM)
T2 construct: host or cells: Expi293 cells, cell lysate
Experimental: as §1, §2, §3, §4, §5

[3] = biological target: T3, c6 (aa 1–133 of human ATGL) (Homo sapiens, UniProt Q96AD5, G146T/S158T); experiment: TAG hydrolase assay, chimeric ATGL variants; assay type: biochemical, human and mouse; details: variant c6, NG-497 (10 μM) or Atglistatin (10 μM)
T3 construct: host or cells: Expi293 cells, cell lysate
Experimental: as §1, §2, §3, §4, §5

mouse ATGL A60V = biological target: T4, mouse ATGL A60V (Mus musculus, UniProt Q8BJ56, A60V); experiment: TAG hydrolase assay, humanized mouse ATGL variants; assay type: biochemical; details: variant A60V, NG-497 (10 μM) or Atglistatin (10 μM)
T4 construct: host or cells: Expi293 cells, cell lysate
Experimental: as §1
The region between aa 60 and 146 of human and mouse ATGL comprises 12 nonidentical aa. We generated 3D homology models for the minimal active domain of mouse ATGL to obtain more detailed insight into the topology of the relevant region (Figure 5d). Based on this model, aa T101, C106, R109, N111, and S133 locate at peripheral (loop) regions (indicated in orange, Figure 5d). […] For all other nonidentical aa (indicated in magenta, Figure 5d), we generated variants with single aa substitutions. The humanized variants A60V, N68K, T93I, and C97F were inactivated by Ai but not NG-497 (Figure 5a).
as §3, §4
as §5, with “min,” for “min, washed in 1x PBS, and resuspended in lysis buffer (20 mM Tris/HCl pH 7.8, 300 mM NaCl, 30 mM imidazole, 0.1% IGEPAL CA-630, 3.5 mM β-mercaptoethanol, 20 µg/ml leupeptin, 2 µg/ml antipain and 1 µg/ml pepstatin). Cells were incubated with 1”

T3 sequence (Q96AD5 1-288 G146T/S158T): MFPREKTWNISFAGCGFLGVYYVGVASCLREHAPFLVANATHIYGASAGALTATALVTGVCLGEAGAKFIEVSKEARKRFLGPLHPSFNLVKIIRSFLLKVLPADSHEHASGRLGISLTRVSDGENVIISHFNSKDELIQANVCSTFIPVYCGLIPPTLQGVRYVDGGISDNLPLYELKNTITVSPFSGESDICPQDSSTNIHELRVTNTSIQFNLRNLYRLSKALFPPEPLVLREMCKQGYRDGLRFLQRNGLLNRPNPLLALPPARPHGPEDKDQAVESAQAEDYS
T1 sequence (Q96AD5 1-288 I93T/S96G/F97C/V101T/S106C/H109R/S111N/N133S/G146T/S158T): as the sequence (Q96AD5 1-288 G146T/S158T) above, with I93T, S96G, F97C, V101T, S106C, H109R, S111N, N133S counted along it
T2 sequence (Q96AD5 1-288 N133S/G146T/S158T): as the sequence (Q96AD5 1-288 G146T/S158T) above, with N133S counted along it
T4 sequence (Q8BJ56 whole entry A60V): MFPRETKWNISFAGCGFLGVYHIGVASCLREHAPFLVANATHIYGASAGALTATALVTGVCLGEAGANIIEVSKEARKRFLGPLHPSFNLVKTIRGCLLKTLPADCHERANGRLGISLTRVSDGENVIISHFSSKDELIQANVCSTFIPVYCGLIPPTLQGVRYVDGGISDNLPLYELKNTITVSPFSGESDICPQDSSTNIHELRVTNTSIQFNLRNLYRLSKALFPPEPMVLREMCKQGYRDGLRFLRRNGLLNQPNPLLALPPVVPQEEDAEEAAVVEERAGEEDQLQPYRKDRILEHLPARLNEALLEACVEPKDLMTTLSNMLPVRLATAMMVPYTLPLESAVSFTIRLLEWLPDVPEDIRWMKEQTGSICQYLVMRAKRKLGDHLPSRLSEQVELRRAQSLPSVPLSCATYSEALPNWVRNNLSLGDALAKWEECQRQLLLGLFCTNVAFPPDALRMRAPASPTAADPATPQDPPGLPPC

Row | SMILES | inhibition of TAG hydrolase activity [1] | inhibition of TAG hydrolase activity [2] | inhibition of TAG hydrolase activity [3] | inhibition of TAG hydrolase activity (mouse ATGL A60V)
1 | CN(C)C(=O)Nc1cccc(-c2ccc(N(C)C)cc2)c1 [Atglistatin, reference compound] | neither inhibited | neither inhibited | neither inhibited | inactivated
2 | CCOc1ccc(-c2cc(OC)cc(C(=O)OC(C)C)n2)cc1 [NG-497] | neither inhibited | neither inhibited | neither inhibited | 
